Measurements: patent US8404855B2, “Substituted enaminocarbonyl compounds” (Bayer CropScience AG, priority 2006, dated 2013)

Tests used:
[1] = tested on: green peach aphid (Myzus persicae); experiment: Myzus test (MYZUPE spray treatment); type: in vivo
From the text: In this test, for example, the following compounds of the Preparation Examples show good activity: see table

[2] = tested on: green peach aphid (Myzus persicae); experiment: Myzus test; oral (MYZUPE O); type: in vivo
[3] = tested on: green peach aphid (Myzus persicae); experiment: Myzus persicae test, hydroponic treatment (MYZUPE sys.); type: in vivo; conditions: pea plant in treated water
Experimental: The preparation of active compound is mixed with water. The stated concentration refers to the amount of active compound per volume unit of water (mg/l=ppm). The treated water is filled into containers housing a pea plant (Pisum sativum) which is then infected with the green peach aphid (Myzus persicae).
(§1) After the desired period of time, the kill in % is determined.

[4] = tested on: cotton aphid (Aphis gossypii); experiment: Aphis gossypii test (APHIGO), leaf dip; type: in vivo; conditions: cotton leaves dipped
Experimental: as §1

[5] = tested on: Lucilia cuprina larvae; experiment: Lucilia cuprina test (LUCICU); type: in vivo; conditions: treated horse meat
Experimental: as §1

[6] = tested on: green peach aphid (Myzus persicae); experiment: Myzus persicae test (MYZUPE T), leaf dip; type: in vivo; conditions: 20 ppm; cabbage leaves dipped; comparison with prior art
Experimental: as §1

[7] = tested on: Meloidogyne incognita; experiment: Meloidogyne test (MELGIN spray treatment); type: in vivo; conditions: 20 ppm; gall formation, 100% = no galls; comparison with prior art
Experimental: Containers are filled with sand, active compound solution, Meloidogyne incognita egg/larvae suspension and lettuce seeds. The lettuce seeds germinate and the plants develop. On the roots, galls are formed.
After the desired period of time, the nematicidal activity is determined by the formation of galls in %. 100% means that no galls were found; 0% means that the number of galls on the treated plants corresponds to that of the untreated controls.

[8] = tested on: adult fleas (Ctenocephalides felis); experiment: Ctenocephalides felis; oral (CTECFE); type: in vivo; conditions: 100 ppm in citrated cattle blood
Experimental: Part of the concentrate is diluted with citrated cattle blood, and the desired concentration is prepared.
20 unfed adult fleas (Ctenocephalides felis) are placed into a chamber whose top and bottom ends are closed with gauze. A metal cylinder whose bottom end is closed with parafilm is placed onto the chamber. The cylinder contains the blood/active compound preparation, which can be taken up by the fleas through the parafilm membrane. The blood is warmed to 37° C., but the flea chamber is at room temperature.
as §1

[9] = tested on: Boophilus microplus; experiment: Boophilus microplus test (BOOPMI injection); type: in vivo; conditions: 20 ppm (so in the source), 100% = no tick has laid fertile eggs, comparison with prior art
Experimental: The solution of active compound is injected into the abdomen (Boophilus microplus), and the animals are transferred into dishes and kept in a temperature-controlled room.
100% means that no tick has laid any fertile eggs.

[10] = tested on: larvae of the mustard beetle (Phaedon cochleariae); experiment: Phaedon test (PHAECO spray treatment); conditions: 500 g/ha; Chinese cabbage leaf disks sprayed
[11] = 0.8 ppm, comparison with prior art
[12] = 4 ppm, comparison with prior art
[13] = 500 g/ha, Chinese cabbage leaf disks sprayed

With `O=C1C=C(N(Cc2ccc(Cl)nc2)CC(F)F)CO1` [Example 1, 4-[[(6-Chloropyridin-3-yl)methyl](2,2-difluoroethyl)amino]furan-2(5H)-one] the “Kill rate in % after 5 days” value ([1]; 4 g/ha, leaf disks sprayed, comparison with prior art) was 80%, the “Kill rate in % after 5 days” value ([2]; 0.032 ppm, oral, comparison with prior art) was 100% and the “Kill rate in % after 6 days” value [3, 11] was 100%. For the same compound, the “Kill rate in % after 6 days” value [4, 11] was 60%, the “Kill rate in % after 6 days” value [4, 12] was 98% and the “Kill rate in % after 2 days” value [5, 12] was 100%. For the same compound, the “Kill rate in % after 6 days” value [6] was 95%.

With `O=C1C=C(N(CCCF)Cc2ccc(Cl)nc2)CO1` [Example 2, 4-[[(6-Chloropyridin-3-yl)methyl](3-fluoro-n-propyl)amino]furan-2(5H)-one] the “Kill rate in % after 5 days” value [1, 13] was 100% and the “Kill rate in % after 5 days” value ([2]; 20 ppm, oral uptake by sucking) was 100%.

`O=C1C=C(N(CC=C(Cl)Cl)Cc2ccc(Cl)nc2)CO1` [Example 3, 4-[[(6-Chloropyridin-3-yl)methyl](3,3-dichloroprop-2-en-1-yl)amino]furan-2(5H)-one] was tested, and the “Kill rate in % after 5 days” value [1, 13] was 100%.

`O=C1C=C(N(CCF)Cc2ccc(Cl)nc2)CO1` [Example 4, 4-[[(6-Chloropyridin-3-yl)methyl](2-fluoroethyl)amino]furan-2(5H)-one] was tested, and the “Kill rate in % after 14 days” value [7] was 70%, the “Kill rate in % after 6 days” value ([3]; 0.16 ppm, comparison with prior art) was 55% and the “Kill rate in % after 6 days” value [3, 11] was 100%. For the same compound, the “Kill rate in % after 6 days” value [4, 12] was 99%, the “Kill rate in % after 1 day” value ([8]; comparison with prior art) was 30% and the “Kill rate in % after 7 days” value [9] was 100%. For the same compound, the “Kill rate in % after 6 days” value [6] was 80%.

With `CC1OC(=O)C=C1N(Cc1ccc(Cl)nc1)CC(F)F` (centres unmarked) [Example 6, 4-[[(6-Chloropyridin-3-yl)methyl](2,2-difluoroethyl)amino]-5-methylfuran-2(5H)-one] the “Kill rate in % after 5 days” value [1, 13] was 100%.

`O=C1OCC(N(Cc2ccc(Cl)nc2)CC(F)F)=C1Br` [Example 7, 3-Bromo-4-[[(6-chloropyridin-3-yl)methyl](2,2-difluoroethyl)amino]furan-2(5H)-one] was tested, and the “Kill rate in % after 5 days” value [1, 13] was 100%.

With `O=C1OCC(N(Cc2ccc(Cl)nc2)CC(F)F)=C1Cl` [Example 8, 3-Chloro-4-[[(6-chloropyridin-3-yl)methyl](2,2-difluoroethyl)amino]furan-2(5H)-one] the “Kill rate in % after 5 days” value [1, 13] was 100%, the “Kill rate in % after 6 days” value ([3]; 4 ppm) was 98% and the “Kill rate in % after 6 days” value ([4]; 20 ppm) was 100%. The “Kill rate in % after 2 days” value ([5]; 100 ppm) was 100%.

`O=C1C=C(N(Cc2ccc(F)nc2)CC(F)F)CO1` [Example 15] was tested, and the “Kill rate in % after 5 days” value [1, 13] was 100%, the “Kill rate in % after 6 days” value ([3]; 4 ppm) was 100% and the “Kill rate in % after 6 days” value ([4]; 100 ppm) was 100%. For the same compound, the “Kill rate in % after 2 days” value [8] was 90%, the “Kill rate in % after 2 days” value ([5]; 100 ppm) was 90% and the “Kill rate in % after 7 days” value [10] was 100%.

For `O=C1C=C(N(Cc2ccc(Cl)nc2)CC(F)Cl)CO1` (centres unmarked) [Example 17, 4-[[(6-chloropyridin-3-yl)methyl](2-chloro-2-fluoroethyl)amino]furan-2(5H)-one], the “Kill rate in % after 5 days” value [1, 13] was 100% and the “Kill rate in % after 7 days” value [10] was 100%.

With “(E/Z)-4-[[(6-Chloropyridin-3-yl)methyl](2-fluorovinyl)amino]-5-methylfuran-2(5H)-one [Example 5]” the “Kill rate in % after 5 days” value [1, 13] was 100%.
